# Laboratory results published in US10383835B2, “Treatment of inflammatory disorders in non-human mammals” (The Regents of the University of California, priority 2012, dated 2019).
# Assays:
# Canine sEH = Canine sEH (Canis lupus familiaris, UniProt A0A8I3NJL8); assay: sEH Inhibitor Screen of Canine sEH; format: biochemical; settings: [I] = 100 nM
# [1] = human volunteers; cited from earlier work
# [2] = test system: horse with pain due to laminitis; assay: Pain (VAS) and blood pressure in one horse with naturally occurring laminitis, multimodal analgesic therapy; format: in vivo; settings: before t-TUCB; phenylbutazone 4 mg/kg twice daily PO, gabapentin 20 mg/kg twice daily PO
# [3] = Plasma concentrations and pharmacokinetics in the laminitic horse; settings: gabapentin 20 mg/kg BID PO
# in vivo = settings: Thoroughbred, horse, iv, 0.1 mg/kg
# [4] = design: species or system horse; settings: in vivo
# sEH = sEH (Homo sapiens (Human), UniProt P34913); assay: Activity as inhibitor of sEH (standard assays); format: biochemical
# Source text: Derivatives of urea are transition state mimetics that form a preferred group of sEH inhibitors. […] Any particular urea derivative or other compound can be easily tested for its ability to inhibit sEH by standard assays, such as those discussed herein. The production and testing of urea and carbamate derivatives as sEH inhibitors is set forth in detail in, for example, Morisseau et al., Proc Natl Acad Sci (USA) 96:8849-8854 (1999).
# One category of these inhibitors comprises inhibitors that mimic the substrate for the enzyme. The lipid alkoxides (e.g., the 9-methoxide of stearic acid) are an exemplar of this group of inhibitors.
# COX-2 / COX-1 = settings: cited from earlier work
# COX-2 = COX-2 (Equus caballus (Horse), UniProt O19183); settings: read-out: 80% maximal inhibitory concentration (IC80) against COX-2; cited from earlier work
# COX-2, sequence (O19183 18-604): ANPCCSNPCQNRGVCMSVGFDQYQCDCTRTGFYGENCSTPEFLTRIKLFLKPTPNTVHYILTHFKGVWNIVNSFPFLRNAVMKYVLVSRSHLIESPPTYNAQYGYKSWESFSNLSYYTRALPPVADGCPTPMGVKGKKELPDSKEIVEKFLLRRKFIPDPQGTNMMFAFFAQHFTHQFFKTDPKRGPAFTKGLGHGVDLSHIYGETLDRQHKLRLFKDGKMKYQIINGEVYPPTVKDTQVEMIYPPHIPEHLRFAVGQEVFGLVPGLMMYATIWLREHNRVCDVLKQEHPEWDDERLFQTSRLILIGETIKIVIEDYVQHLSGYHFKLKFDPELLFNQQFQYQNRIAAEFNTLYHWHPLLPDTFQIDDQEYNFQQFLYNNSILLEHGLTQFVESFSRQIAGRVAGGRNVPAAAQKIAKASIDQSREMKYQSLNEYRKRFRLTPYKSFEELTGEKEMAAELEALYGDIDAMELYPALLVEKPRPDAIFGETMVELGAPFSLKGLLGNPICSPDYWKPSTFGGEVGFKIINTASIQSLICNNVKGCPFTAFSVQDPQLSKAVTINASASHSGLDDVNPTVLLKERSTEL
# Canine sEH, sequence (A0A8I3NJL8 1-556): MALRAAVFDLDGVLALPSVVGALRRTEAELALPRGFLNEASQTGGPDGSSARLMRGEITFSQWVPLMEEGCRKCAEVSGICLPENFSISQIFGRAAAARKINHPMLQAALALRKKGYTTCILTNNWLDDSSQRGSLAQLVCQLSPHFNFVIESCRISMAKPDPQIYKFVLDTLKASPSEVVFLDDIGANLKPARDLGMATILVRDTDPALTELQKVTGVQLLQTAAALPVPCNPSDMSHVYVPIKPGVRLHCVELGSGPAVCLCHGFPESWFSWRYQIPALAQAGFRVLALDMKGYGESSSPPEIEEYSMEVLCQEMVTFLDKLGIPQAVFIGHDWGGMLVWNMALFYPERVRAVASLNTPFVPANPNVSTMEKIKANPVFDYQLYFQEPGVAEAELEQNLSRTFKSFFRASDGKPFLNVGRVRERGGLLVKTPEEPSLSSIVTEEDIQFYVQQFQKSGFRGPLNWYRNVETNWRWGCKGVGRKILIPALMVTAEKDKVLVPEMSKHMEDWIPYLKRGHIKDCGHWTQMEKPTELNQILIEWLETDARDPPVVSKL
# sEH, sequence (P34913 whole entry): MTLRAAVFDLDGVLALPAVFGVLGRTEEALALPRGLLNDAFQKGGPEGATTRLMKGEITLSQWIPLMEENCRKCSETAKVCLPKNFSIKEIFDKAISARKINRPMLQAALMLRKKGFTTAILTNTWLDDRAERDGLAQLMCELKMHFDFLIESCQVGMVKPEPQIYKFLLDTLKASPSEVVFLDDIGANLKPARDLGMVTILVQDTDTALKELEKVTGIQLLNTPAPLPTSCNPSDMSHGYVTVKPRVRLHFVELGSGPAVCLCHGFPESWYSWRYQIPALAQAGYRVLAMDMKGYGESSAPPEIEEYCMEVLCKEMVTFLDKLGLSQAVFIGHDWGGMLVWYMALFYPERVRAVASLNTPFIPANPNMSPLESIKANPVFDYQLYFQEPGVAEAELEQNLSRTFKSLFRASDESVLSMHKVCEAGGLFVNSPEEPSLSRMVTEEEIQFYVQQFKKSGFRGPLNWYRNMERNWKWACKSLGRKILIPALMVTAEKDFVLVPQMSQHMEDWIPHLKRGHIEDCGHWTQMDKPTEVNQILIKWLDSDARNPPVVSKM
compound,measurement,setting,value
"O=C(O)CNC(=O)c1ccc(O[C@H]2CC[C@H](NC(=O)Nc3ccc(OC(F)(F)F)cc3)CC2)cc1 [compound 2283, trans-2-(4-(4-(3-(4-trifluoromethoxy-phenyl)-ureido)-cyclohexyloxy)-benzamido)-acetic acid]",inhibition at 0.1 µM,Canine sEH,64%
NCC1(CC(=O)O)CCCCC1 [gabapentin],plasma concentration associated with analgesia,[1],~18 µM
same,response of laminitis pain to therapy,[2],refractory
same,lowest measured plasma concentration,[3],1 µM
same,highest measured plasma concentration,[3]; first sampling five hours after dosing,18 µM
"O=C(Nc1ccc(OC(F)(F)F)cc1)N[C@H]1CC[C@H](Oc2ccc(C(=O)O)cc2)CC1 [compound 1728, trans-4-{4-[3-(4-Trifluoromethoxy-phenyl)-ureido]-cyclohexyloxy}-benzoic acid]",half-life,in vivo,29.8 h
same,Anisocytosis,[4],Slight
same,Bilirubin Direct,[4],0.1 mg/dL
same,Creatinine,[4],1.1 mg/dL
same,Echinocytes,[4],Few
same,GGT,[4],11 IU L^−1
same,SDH-37,[4],0 IU L^−1
"O=C(Nc1ccc(OC(F)(F)F)cc1)N[C@H]1CC[C@H](Oc2ccc(-c3nnn[nH]3)cc2)CC1 [compound 2806, 1-(trans-4-(4-(1H-tetrazol-5-yl)-phenoxy)-cyclohexyl)-3-(4-(trifluoromethoxy)-phenyl)-urea]",inhibition at 0.1 µM,Canine sEH,99%
"CCCCCCCCCCCCNC(=O)NC12CC3CC(CC(C3)C1)C2 [ADU, N-Adamantyl-N′-dodecyl urea]",activity as an inhibitor of sEH,sEH,particularly high activity on sEH
"O=C(Nc1ccc(OC(F)(F)F)cc1)N[C@H]1CC[C@H](Oc2ccc(C(=O)NO)cc2)CC1 [compound 2761, N-hydroxy-4-(trans-4-(3-(4-(trifluoromethoxy)-phenyl)-ureido)-cyclohexyloxy)-benzamide]",inhibition at 0.1 µM,Canine sEH,72%
"O=C(Nc1ccccc1F)N[C@H]1CC[C@H](Oc2ccc(C(=O)O)cc2)CC1 [compound 2736, 4-(trans-4-(3-(2-fluorophenyl)-ureido)-cyclohexyloxy)-benzoic acid]",inhibition at 0.1 µM,Canine sEH,80%
"Cc1oc(=O)oc1COC(=O)c1ccc(O[C@H]2CC[C@H](NC(=O)Nc3ccc(OC(F)(F)F)cc3)CC2)cc1 [compound 2796, (5-methyl-2-oxo-1,3-dioxol-4-yl)methyl 4-((1r,4r)-4-(3-(4-(trifluoromethoxy)-phenyl)-ureido)-cyclohexyloxy)-benzoate]",inhibition at 0.1 µM,Canine sEH,84%
"CS(=O)(=O)NC(=O)c1ccc(O[C@H]2CC[C@H](NC(=O)Nc3ccc(OC(F)(F)F)cc3)CC2)cc1 [compound 2728, N-(methylsulfonyl)-4-(trans-4-(3-(4-trifluoromethoxy-phenyl)-ureido)-cyclohexyloxy)-benzamide]",inhibition at 0.1 µM,Canine sEH,84%
CC(=O)Oc1ccccc1C(=O)O [Aspirin],COX-2 (IC50)/COX-1 (IC50) ratio,COX-2 / COX-1,0.32
"O=C(Nc1ccc(OC(F)F)cc1)N[C@H]1CC[C@H](Oc2ccc(C(=O)O)cc2)CC1 [compound 2805, 4-(trans-4-(3-(4-(difluoromethoxy)-phenyl)-ureido)-cyclohexyloxy)-benzoic acid]",inhibition at 0.1 µM,Canine sEH,95%
COc1ccc2c(c1)c(CC(=O)O)c(C)n2C(=O)c1ccc(Cl)cc1 [indomethacin],COX-2 (IC50)/COX-1 (IC50) ratio,COX-2 / COX-1,33
"O=C(Nc1ccc(OC(F)(F)F)cc1)NC1CCC(Oc2ncccn2)CC1 (stereo not shown) [compound 2810, 1-(4-(pyrimidin-2-yloxy)-cyclohexyl)-3-(4-(trifluoromethoxy)-phenyl)-urea]",inhibition at 0.1 µM,Canine sEH,52%
"O=C(Nc1ccc(Oc2ccc(C(=O)O)cc2)cc1)Nc1ccc(OC(F)(F)F)cc1 [compound 2803, 4-(4-(3-(4-(trifluoromethoxy)-phenyl)-ureido)-phenoxy)-benzoic acid]",inhibition at 0.1 µM,Canine sEH,82%
"O=C(Nc1ccc(OC(F)(F)F)cc1)Nc1ccc(Oc2ccc(C(=O)O)cc2)cc1F [compound 2807, 4-(3-fluoro-4-(3-(4-(trifluoromethoxy)-phenyl)-ureido)-phenoxy)-benzoic acid]",inhibition at 0.1 µM,Canine sEH,95%
CCCCC1C(=O)N(c2ccccc2)N(c2ccccc2)C1=O [phenylbutazone],IC80,COX-2,~23 µM
same,response of laminitis pain to therapy,[2],refractory
"COC(=O)c1ccc(NC2CCC(NC(=O)Nc3ccc(OC(F)(F)F)cc3)CC2)cc1 (stereo not shown) [compound 2804, methyl 4-(4-(3-(4-(trifluoromethoxy)-phenyl)-ureido)-cyclohexylamino)-benzoate]",inhibition at 0.1 µM,Canine sEH,49%
"O=C1CCC(NC(=O)Nc2ccc(OC(F)(F)F)cc2)CC1 [compound 2809, 1-(4-oxocyclohexyl)-3-(4-(trifluoromethoxy)-phenyl)-urea]",inhibition at 0.1 µM,Canine sEH,51%
